Reference: ChEMBL document CHEMBL1201862, “PubChem BioAssay data set” (2004)
Calls of active or inactive are those of the source.

What was measured:
[1] = HeLa 2N DNA content increase, dose response, cell-based, IC50 (AID 1117349); format: functional
[2] = cells; format: functional, cell-based; settings: INS-1E
[3] = HeLa 4N DNA content increase, dose response, cell-based, IC50 (AID 1117351); format: functional
[4] = Dose-response inhibition of insulin secretion in a rat insulinoma line at 5 mM glucose (AID 1117331); format: functional, cell-based; settings: INS-1E
[5] = biological target: Cytochrome P450 2D6 (Homo sapiens, UniProt P10635);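 further: CYP2D6 member of a cytochrome P450 panel assay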
Cytochrome P450 2D6, sequence (P10635 whole entry): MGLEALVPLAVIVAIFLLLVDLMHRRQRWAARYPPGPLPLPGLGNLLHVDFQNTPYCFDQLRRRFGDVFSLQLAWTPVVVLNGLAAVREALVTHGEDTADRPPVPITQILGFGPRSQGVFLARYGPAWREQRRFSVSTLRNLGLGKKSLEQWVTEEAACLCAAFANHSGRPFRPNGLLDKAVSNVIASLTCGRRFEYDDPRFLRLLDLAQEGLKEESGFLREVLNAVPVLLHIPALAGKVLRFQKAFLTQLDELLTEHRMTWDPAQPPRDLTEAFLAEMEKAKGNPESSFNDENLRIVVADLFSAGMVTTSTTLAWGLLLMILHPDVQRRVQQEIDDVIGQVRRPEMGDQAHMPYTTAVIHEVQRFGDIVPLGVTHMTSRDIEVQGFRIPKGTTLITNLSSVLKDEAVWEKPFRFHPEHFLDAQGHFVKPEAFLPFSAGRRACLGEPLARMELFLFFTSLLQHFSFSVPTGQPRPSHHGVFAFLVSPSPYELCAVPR

[6] = microbe, parasite or virus in culture; format: functional; settings: Mycobacterium tuberculosis
[7] = biological target: Cytochrome P450 2C9 (Homo sapiens, UniProt P11712)
Cytochrome P450 2C9, sequence (P11712 whole entry): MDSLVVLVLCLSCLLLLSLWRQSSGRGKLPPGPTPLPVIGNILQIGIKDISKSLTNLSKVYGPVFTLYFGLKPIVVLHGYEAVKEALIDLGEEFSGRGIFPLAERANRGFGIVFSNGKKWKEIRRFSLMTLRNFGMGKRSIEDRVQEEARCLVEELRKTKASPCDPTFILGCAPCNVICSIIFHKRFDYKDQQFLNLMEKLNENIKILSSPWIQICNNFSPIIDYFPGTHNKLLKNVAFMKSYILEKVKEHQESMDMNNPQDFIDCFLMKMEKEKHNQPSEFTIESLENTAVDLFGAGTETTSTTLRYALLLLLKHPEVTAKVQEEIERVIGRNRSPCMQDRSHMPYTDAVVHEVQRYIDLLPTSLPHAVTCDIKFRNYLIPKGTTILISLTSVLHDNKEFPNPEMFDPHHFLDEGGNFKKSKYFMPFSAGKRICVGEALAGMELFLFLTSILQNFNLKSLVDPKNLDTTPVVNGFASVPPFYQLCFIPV

[8] = cells; format: functional
[9] = THP-1 cell cytotoxicity, dose response, cytotoxicity control for non-replicating M. tuberculosis project (AID 489025); format: functional
[10] = biological target: Ephrin type-A receptor 4 (Mus musculus, UniProt Q03137); assay: inhibitors of EphA4 binding to KYL peptide, primary screen, biochemical, colorimetric, mouse EphA4 (AID 689); format: functional
Ephrin type-A receptor 4, sequence (Q03137 whole entry): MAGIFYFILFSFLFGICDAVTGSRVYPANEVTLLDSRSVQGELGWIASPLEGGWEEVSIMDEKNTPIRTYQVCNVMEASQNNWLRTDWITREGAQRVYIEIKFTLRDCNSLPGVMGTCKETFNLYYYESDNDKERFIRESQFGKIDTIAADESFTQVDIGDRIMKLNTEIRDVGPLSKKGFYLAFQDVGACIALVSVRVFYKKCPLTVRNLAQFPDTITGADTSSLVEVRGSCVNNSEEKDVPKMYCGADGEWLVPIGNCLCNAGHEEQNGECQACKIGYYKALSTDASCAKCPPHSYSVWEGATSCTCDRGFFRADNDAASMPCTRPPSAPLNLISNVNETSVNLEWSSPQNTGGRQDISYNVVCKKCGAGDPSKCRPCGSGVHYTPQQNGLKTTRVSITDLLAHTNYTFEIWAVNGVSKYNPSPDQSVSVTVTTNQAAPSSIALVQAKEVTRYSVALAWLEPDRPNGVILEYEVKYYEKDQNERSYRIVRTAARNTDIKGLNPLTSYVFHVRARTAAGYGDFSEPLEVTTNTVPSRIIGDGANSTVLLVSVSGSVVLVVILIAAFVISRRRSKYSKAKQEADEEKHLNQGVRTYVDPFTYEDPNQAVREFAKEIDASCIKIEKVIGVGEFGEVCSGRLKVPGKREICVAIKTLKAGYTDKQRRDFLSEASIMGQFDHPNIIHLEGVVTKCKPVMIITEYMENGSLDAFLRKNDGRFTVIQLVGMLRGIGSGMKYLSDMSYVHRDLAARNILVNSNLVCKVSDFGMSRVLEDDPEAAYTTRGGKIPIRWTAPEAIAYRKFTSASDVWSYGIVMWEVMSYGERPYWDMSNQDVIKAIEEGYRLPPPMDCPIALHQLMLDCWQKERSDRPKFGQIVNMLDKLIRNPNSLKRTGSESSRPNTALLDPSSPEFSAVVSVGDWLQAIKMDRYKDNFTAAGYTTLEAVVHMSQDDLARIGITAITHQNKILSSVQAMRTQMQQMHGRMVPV

[11] = Luminescence Cell-Based Dose Confirmation to Identify Activators of 5'UTR Stem-Loop Driven Alpha-Synuclein mRNA Translation in H4 Neuroglioblastoma Cells. [Related pubchem assays: 1829 (Project Summary), 1814 (Primary HTS)]; format: functional
[12] = Luminescence Cell-Based Dose Response to Identify Activators of 5'UTR Stem-Loop Driven Prion Protein mRNA Translation in H4-C Neuroglioblastoma Cells. [Related pubchem assays: 1829 (Project Summary), 1814 (Primary HTS)]; format: functional
[13] = Luminescence Cell-Based Dose Response HTS to Identify Activators of Luciferase Translation or Activity in H4 […] Cells. [Related pubchem assays: 1829 (Project Summary), 1814 (Primary HTS)]; format: functional
[14] = biological target: T1, Polyadenylate-binding protein 1 (Homo sapiens, UniProt P11940); assay: PABP1 MLLE–PAM2 binding inhibitor potency, dose response, biochemical, fluorescence polarization, FITC-PAM2 peptide (AID 602259); format: functional; settings: read-out: IC50_Mean
T1 sequence (P11940 whole entry): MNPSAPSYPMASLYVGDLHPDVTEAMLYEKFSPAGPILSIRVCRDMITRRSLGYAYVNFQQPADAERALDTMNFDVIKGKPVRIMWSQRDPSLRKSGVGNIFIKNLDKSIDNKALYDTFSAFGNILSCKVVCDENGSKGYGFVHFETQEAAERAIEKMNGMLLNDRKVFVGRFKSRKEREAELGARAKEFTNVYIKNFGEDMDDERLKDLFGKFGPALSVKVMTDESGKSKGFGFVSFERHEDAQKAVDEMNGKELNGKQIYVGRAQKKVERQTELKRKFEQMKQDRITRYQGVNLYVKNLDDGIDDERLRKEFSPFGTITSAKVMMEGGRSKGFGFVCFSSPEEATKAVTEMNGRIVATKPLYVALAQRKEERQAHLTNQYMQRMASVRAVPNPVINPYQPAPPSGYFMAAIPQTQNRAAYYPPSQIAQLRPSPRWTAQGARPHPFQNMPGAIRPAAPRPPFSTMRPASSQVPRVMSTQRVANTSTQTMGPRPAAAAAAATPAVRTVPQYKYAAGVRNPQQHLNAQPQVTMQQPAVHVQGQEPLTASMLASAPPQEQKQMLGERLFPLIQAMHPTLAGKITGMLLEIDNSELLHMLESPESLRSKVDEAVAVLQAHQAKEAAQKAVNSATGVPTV

[15] = biological target: T1, Polyadenylate-binding protein 1; assay: PABP1 MLLE–PAM2 interaction inhibitors, dose response, miRNA deadenylation inhibitor project, biochemical, fluorescence polarization, Cy5-PAM2 peptide, secondary (AID 602260); format: functional; settings: read-out: IC50_Mean
[16] = Luminescence Cell-Based Dose Response to Identify Activators of Luciferase Translation or Activity in H4-C Neuroglioblastoma Cells. [Related pubchem assays: 1829 (Project Summary), 1814 (Primary HTS)]; format: functional
[17] = biological target: Oxysterols receptor LXR-beta (Homo sapiens, UniProt P55055); format: functional, cell-based;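 further: Cell-based luminescence dose-response assay of agonist activity at LXR, run as a confirmatory counterscreen to a daf-12 agonist screen; HEK293 cells with Gal4-LXR fusion and GAL4-driven luciferase reporter; agonist potency from rising luciferase signal of a Gal4-LXR reporter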
Oxysterols receptor LXR-beta, sequence (P55055 whole entry, the tested form may be a part): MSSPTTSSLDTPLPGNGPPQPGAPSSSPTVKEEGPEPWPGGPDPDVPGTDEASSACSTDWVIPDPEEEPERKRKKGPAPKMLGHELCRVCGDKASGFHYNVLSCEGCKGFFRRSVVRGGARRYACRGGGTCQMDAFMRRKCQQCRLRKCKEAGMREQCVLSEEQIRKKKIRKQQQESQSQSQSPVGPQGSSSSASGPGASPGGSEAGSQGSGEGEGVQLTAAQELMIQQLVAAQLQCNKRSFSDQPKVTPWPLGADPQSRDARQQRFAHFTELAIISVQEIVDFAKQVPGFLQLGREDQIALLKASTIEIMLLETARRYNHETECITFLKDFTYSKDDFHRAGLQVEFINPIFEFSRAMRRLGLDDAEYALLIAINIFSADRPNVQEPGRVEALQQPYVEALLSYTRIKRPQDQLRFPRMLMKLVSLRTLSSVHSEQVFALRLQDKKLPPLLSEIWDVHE

[18] = cells
[19] = test system: H4; assay: Luminescence Cell-Based Dose Response HTS to Identify Activators of 5'UTR Stem-Loop Driven Prion Protein mRNA Translation in H4 Neuroglioblastoma Cells. [Related pubchem assays: 1829 (Project Summary), 1814 (Primary HTS)]; format: functional; settings: Homo sapiens
[20] = biological target: Estrogen receptor beta (Homo sapiens, UniProt Q92731);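 further: recombinant ER-beta bound to coactivator SRC1 peptide in presence of estradiol agonist; inhibitors block coactivator peptide binding and lower the FRET signal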
[21] = biological target: Sphingosine 1-phosphate receptor 2 (Homo sapiens, UniProt O95136); assay: Dose Response Cell Based Assay for Agonists of the S1P2 Receptor. [Related pubchem assays: 729, 736, 843 ]; format: functional
Sphingosine 1-phosphate receptor 2, sequence (O95136 whole entry): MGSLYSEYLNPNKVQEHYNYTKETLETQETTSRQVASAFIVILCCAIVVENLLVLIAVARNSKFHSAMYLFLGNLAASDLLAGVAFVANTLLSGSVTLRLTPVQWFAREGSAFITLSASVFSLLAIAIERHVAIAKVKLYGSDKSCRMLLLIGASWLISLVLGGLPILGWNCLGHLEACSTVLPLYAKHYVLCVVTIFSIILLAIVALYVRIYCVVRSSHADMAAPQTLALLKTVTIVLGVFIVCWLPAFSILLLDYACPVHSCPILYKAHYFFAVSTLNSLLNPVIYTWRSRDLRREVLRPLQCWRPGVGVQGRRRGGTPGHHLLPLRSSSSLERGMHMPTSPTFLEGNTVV

[22] = biological target: E3 ubiquitin-protein ligase Mdm2 (Homo sapiens, UniProt Q00987); assay: enhancers of MDM2-luciferase reporter signal, concentration-effect titration, project on inhibitors of MDM2 ubiquitin ligase, cellular assay, luminescent readout, 384-well plate format (AID 1394); format: functional;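 further: MDM2 E3 inhibitors raise luminescence so EC50 is for signal enhancement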
E3 ubiquitin-protein ligase Mdm2, sequence (Q00987 whole entry): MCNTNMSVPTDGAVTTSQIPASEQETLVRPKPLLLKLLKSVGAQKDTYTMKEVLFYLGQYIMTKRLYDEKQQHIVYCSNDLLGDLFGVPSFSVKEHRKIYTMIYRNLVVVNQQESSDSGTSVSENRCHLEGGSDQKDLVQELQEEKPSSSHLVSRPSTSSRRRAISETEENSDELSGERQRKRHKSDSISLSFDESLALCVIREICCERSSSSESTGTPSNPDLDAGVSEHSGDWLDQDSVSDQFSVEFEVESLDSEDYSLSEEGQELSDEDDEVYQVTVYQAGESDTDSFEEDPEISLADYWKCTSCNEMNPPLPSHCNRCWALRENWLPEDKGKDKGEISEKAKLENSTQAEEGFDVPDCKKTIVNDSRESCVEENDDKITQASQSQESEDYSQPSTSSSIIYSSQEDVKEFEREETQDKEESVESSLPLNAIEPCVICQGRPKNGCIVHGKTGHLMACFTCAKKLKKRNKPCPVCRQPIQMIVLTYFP

[23] = biological target: Melanocortin receptor 4 (Homo sapiens, UniProt P32245); format: functional, cell-based;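 further: Cell-based assay with luminescence read-out, confirmatory dose-response testing for agonist activity of biased ligands at MC4R; human U2OS cells with tagged receptor and beta-arrestin; potency of agonists that increase receptor coupling to beta-arrestin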
Melanocortin receptor 4, sequence (P32245 whole entry): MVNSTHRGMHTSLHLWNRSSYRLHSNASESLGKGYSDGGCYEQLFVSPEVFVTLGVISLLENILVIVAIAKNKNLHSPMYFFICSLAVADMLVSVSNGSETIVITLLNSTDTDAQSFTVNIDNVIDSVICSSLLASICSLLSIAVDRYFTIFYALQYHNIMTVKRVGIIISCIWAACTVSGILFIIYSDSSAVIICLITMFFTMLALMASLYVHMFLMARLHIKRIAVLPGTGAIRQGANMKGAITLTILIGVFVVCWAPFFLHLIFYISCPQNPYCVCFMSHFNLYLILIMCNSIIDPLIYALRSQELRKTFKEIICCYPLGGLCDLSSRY

[24] = HepG2 cell cytotoxicity, dose response, cytotoxicity control for Shn3 inhibitor project, CellTiter-Glo, cherry-picked (AID 624134); format: functional, cell-based
[25] = biological target: T2, Rac GTPase-activating protein 1 (Homo sapiens, UniProt Q9H0H5); assay: MgcRacGAP GTPase-activating activity inhibitors, confirmation, biochemical, ADP Hunter fluorescence, primary and confirmatory (AID 624330); format: functional
T2 sequence (Q9H0H5 whole entry): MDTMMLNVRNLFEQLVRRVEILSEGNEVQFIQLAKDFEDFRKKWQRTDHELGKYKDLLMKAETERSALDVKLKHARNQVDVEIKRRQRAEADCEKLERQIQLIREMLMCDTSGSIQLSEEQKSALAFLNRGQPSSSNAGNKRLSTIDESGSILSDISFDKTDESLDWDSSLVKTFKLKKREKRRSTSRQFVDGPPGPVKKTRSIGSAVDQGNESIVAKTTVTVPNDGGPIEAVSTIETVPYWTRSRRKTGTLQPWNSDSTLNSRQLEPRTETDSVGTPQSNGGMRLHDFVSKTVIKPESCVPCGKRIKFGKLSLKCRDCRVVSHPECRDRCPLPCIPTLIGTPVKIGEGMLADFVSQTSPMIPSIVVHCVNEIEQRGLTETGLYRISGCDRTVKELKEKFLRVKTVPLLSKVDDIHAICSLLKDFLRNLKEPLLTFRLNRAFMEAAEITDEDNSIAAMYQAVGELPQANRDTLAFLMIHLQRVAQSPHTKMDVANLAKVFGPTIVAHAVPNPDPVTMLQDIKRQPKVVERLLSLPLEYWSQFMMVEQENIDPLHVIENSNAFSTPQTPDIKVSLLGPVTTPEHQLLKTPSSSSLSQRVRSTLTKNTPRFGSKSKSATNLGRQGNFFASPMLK

[26] = test system: CHO; assay: cytotoxicity in TLR9-MyD88 CHO cells, dose response, cytotoxicity control for TLR9-MyD88 binding inhibitor project, cell-based, luminescence (AID 588339); format: functional, hamster; settings: Cricetulus griseus;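 further: CHO cells stably coexpressing TLR9 and MyD88 fusions from primary screen; compound exposure lasted 48 hours before viability readout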
[27] = biological target: Glucose-6-phosphate 1-dehydrogenase (Homo sapiens, UniProt P11413); assay: human G6PD enzyme inhibitors, dose response, selectivity assay for P. falciparum G6PD inhibitor project, biochemical, fluorescence (AID 504792); format: functional
Glucose-6-phosphate 1-dehydrogenase, sequence (P11413 whole entry): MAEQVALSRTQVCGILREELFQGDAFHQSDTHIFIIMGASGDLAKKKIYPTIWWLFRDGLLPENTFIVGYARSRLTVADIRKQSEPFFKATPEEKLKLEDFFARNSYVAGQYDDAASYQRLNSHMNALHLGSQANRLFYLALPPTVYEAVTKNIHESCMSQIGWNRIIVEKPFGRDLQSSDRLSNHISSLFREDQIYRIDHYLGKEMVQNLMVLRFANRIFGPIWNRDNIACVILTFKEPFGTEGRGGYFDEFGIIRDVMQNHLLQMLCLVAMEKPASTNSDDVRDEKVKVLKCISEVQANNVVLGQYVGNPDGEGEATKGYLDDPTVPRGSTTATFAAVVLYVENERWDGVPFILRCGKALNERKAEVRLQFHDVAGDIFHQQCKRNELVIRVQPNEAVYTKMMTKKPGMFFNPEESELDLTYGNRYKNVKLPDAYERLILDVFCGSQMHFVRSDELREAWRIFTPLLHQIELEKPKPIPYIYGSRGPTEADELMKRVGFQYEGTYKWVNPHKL

[28] = inhibitors of Vif binding to APOBEC3G peptide, primary screen, biochemical, TR-FRET, GST-Vif 1-94, biotin-A3G peptide, dose response retest (AID 1117319); format: functional;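 further: TR-FRET signal of purified GST-Vif binding a biotinylated A3G peptide; inhibitors lower the FRET signal by blocking Vif and A3G binding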
[29] = biological target: Beta Lactamase (Pseudomonas aeruginosa, UniProt Q932Y6); assay: beta-lactamase reporter inhibitor potency, dose response, artefact control for TLR9-MyD88 binding inhibitor project, BLA reporter cells, FRET fluorescence (AID 588341); format: cell-based;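 further: cell based assay in CHO-K1 cells stably expressing beta-lactamase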
[30] = Shn3 3'UTR reporter inhibitors, dose response, cell-based, Clone20 osteoblasts, firefly luciferase, cherry-picked (AID 624132); format: functional;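 further: firefly luciferase luminescence from reporter carrying the Shn3 3'UTR in osteoblasts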
[31] = control 3'UTR Renilla luciferase suppression, dose response, counter-screen for Shn3 inhibitor project, cell-based, Clone20-Shn3RL, cherry-picked (AID 624133); format: functional

SMILES: CCCNCC(O)COc1ccccc1C(=O)CCc1ccccc1 (configuration not stated) [PROPAFENONE]
- IC50 [1]: > 10 µM (inactive)
- IC50 [2]: > 33.3 µM (inactive)
- IC50 [3]: > 10 µM (inactive)
- IC50 [4]: 4.92 µM (active)

SMILES: CSc1ccc2c(c1)C(N1CCN(C)CC1)Cc1ccccc1S2 (configuration not stated) [METITEPINE]
- IC50 [1]: > 10 µM (inactive)
- IC50 [2]: > 33.3 µM (inactive)
- IC50 [3]: > 10 µM (inactive)
- IC50 [4]: 2.94 µM (active)

SMILES: CCCCCCOC(=O)C(C#N)c1nc2ccccc2nc1N1CCN(CC)CC1 (configuration not stated)
- AC50 [5]: 25.1 µM (inconclusive)
- CC50 [6]: 19.7 µM (active)
- AC50 [7]: 7.94 µM (inconclusive)
- IC50 [8]: 13.6 µM (active)
- CC50 [9]: 24.7 µM (active)
- IC50 [10]: > 100 µM (not active)

SMILES: Cc1cccnc1NC(=S)NC(=O)c1cccs1
- EC50 [11]: 161 nM (active)
- EC50 [12]: 464 nM (active)
- EC50 [13]: < 100 nM (active)
- IC50 [14]: > 66 µM (inactive)
- IC50 [15]: > 66 µM (inactive)
- EC50 [16]: 190 nM (active)
- EC50 [17]: > 67.5 µM (inactive)
- EC50 [18]: > 67.5 µM (inactive)
- EC50 [19]: 14.9 µM (active)

SMILES: C[C@]12CCC(=O)C=C1CCC1C2CC[C@@]2(C)C1CC[C@@]2(O)CC#N (some centres not stated)
- IC50 [20]: > 50 µM (not active)

SMILES: c1ccc(-c2nc3ccccn3c2NCc2ccc3c(c2)OCO3)cc1
- EC50 [21]: > 50 µM (not active)

SMILES: Clc1ccccc1/C=N/NC1=Nc2cccc3cccc1c23
- EC50 [22]: 10.6 µM (not active)
- EC50 [23]: > 89.3 µM (inactive)
- EC50 [17]: > 67.6 µM (inactive)
- EC50 [18]: > 67.6 µM (inactive)

SMILES: COc1cc(N2C(=O)C=CC2=O)ccc1N1C(=O)C=CC1=O
- AC50 [24]: 15.8 µM (active)
- IC50 [25]: 53.8 µM (active)
- IC50 [26]: 1.59 µM (active)
- IC50 [27]: 57.4 µM (inactive)
- IC50 [28]: > 100 µM (active)
- IC50 [29]: 11 µM (inactive)
- AC50 [30]: 2.32 µM (active)
- AC50 [31]: 12.5 µM (active)
